From the SangsterLogP compilation come the findings set out here.

What is called logP is the decadic logarithm of the partition coefficient of the neutral form, usually between octanol and water. Read a high logP as higher lipophilicity. As for `COc1cccc([N+](=O)[O-])c1`, the logP came out at 2.16.
The result for `CCCCCO` reads 1.51; that for `CC[C@H](C)N`, 0.74; that for `CCc1ccccc1O`, 2.47.
For `COc1ccc(C(C)=O)cc1` the value was 1.74.
For `c1ccc(N2CCCCC2)cc1` the value was 2.98.
On to `O=NN1CCCCC1`, for which the logP was 0.36.
The result for `O=C1CC(=O)NC(=O)N1` reads -1.47.
The result for `CC(=O)C(C#N)=NNc1ccccc1Cl` reads 4; that for `OCCBr`, 0.23.
For `N#Cc1ccc(NC=O)cc1` the value was 1.08.
In turn, `CSc1nnc(CCC(C)C)c(=O)n1N` displayed a logP of 1.85.
The compound `Cc1cn([C@H]2CC[C@@H](CO)O2)c(=O)[nH]c1=O` showed a logP of -0.6.
Regarding `O=C(O)c1cccc(O)c1`, the logP turned out to be 1.5.
The result for `Cc1cn([C@H]2C=C[C@@H](CO)O2)c(=O)[nH]c1=O` reads -0.72; that for `Oc1ccc(Cl)cc1Cl`, 3.06.
For `Cc1ccc2c(c1)c([N+](=O)[O-])cc[n+]2[O-]` the value was 1.43; for `c1ccc2c(c1)Nc1ccccc1S2`, 4.15; for `O=C(O)Cc1ccc(Cl)cc1`, 2.12.
For `Nc1ccc(C(=O)NCC(=O)O)cc1` the value was -0.89; for `Cc1ccc(S(N)(=O)=O)cc1`, 0.82.
Compound `c1ncc2[nH]cnc2n1` came in with a logP of -0.37.
For `NC(=O)CCCc1ccccn1` the value was -0.09; for `Cc1cn([C@H]2C[C@H](O)[C@@H](CO)O2)c(=O)[nH]c1=S`, -0.07; for `Nc1nc2c(ncn2[C@@H]2O[C@H](CO)[C@@H](O)[C@H]2O)c(=O)[nH]1`, -1.9.
The result for `CCCCC(C)=O` reads 1.38; that for `CCOC(=O)C=Cc1ccccc1`, 2.99.
For `Brc1ccncc1` the value was 1.54; for `CCI`, 2.
With `CNC(=O)CNC(C)=O`, the logP was -1.56.
For `CCCCCC=O` the value was 1.78.
`O=C(O)COc1cccc(C(F)(F)F)c1` registered a logP of 2.36.
Regarding `Cc1cccc(OCCN(C)C)c1`, the logP came out at 2.05.
For `Cc1cc(C)cc(O)c1` the value was 2.35.
For `O=C(O)COc1ccc(F)cc1` the value was 1.64.
In the case of `CC1(C)S[C@@H]2[C@H](NC(=O)[C@H](N)c3ccccc3)C(=O)N2[C@H]1C(=O)O`, the logP was 1.35.
Take `CC#N`: the logP is -0.34.
The result for `CSc1nnc(C(C)C)c(=O)n1N` reads 1.01.
On to `CCCc1cc(NC(C)=O)cc(CCC)c1O`, for which the logP was 3.16.
For `COc1ccc2c(c1)N(CCCN(C)C)c1ccccc1S2` the value was 4.9.
For `O=C1O[C@H]([C@@H](O)CO)C(O)=C1O` the value was -1.85.
The result for `COc1ccccc1OCC(=O)O` reads 0.98; that for `[O-][n+]1cccc2ccccc21`, 0.36; that for `C#CC`, 0.94.
As for `CCc1ccc(OC(=O)NC)cc1`, the logP came out at 2.23.
The result for `Oc1cccc(C(F)(F)F)c1` reads 2.95; that for `CSc1ccc2c(c1)N(CCC1CCCCN1C)c1ccccc1S2` (centres undefined), 5.9; that for `C1CN2CCC1CC2`, 1.38.
The result for `CC1CCC(NC(=O)N(CCCl)N=O)CC1` (centres undefined) reads 3.3; that for `Brc1ccccc1Br`, 3.64; that for `O=[N+]([O-])c1ccc(O)c([N+](=O)[O-])c1`, 1.67.
The result for `CNc1ccccc1` reads 1.66.
As to `O=c1[nH]c2nc(O)nc(O)c2[nH]1`, the logP is -2.17.
The result for `O=C(Oc1ccccc1)c1ccccc1` reads 3.59.
For `CCNC(=O)c1ccc(S(N)(=O)=O)cc1` the value was 0.03; for `O=NN1CCOCC1`, -0.44; for `CN1CCc2cccc3c2C1Cc1ccc(O)c(O)c1-3` (centres undefined), 2.3.
In turn, `Cc1ccccc1OCC(=O)O` returned a logP of 1.98.
For `O=[N+]([O-])c1ccc2c(c1)c([N+](=O)[O-])cc[n+]2[O-]` the value was 0.9.
For `Cc1ccc(C)c2c(C)cccc12` the value was 4.9.
`c1ccsc1` yielded a logP of 1.81.
For `CC(=O)c1ccc(Cl)cc1` the value was 2.32; for `Brc1cnc2ccccc2c1`, 3.03.
Turning to `CCOC(=O)C(C#N)=NNc1cc(Cl)c(Cl)cc1Cl`, the logP amounted to 5.21.
The result for `CCNC` reads 0.15; that for `O=C(CCCN1CCC(O)(c2ccc(Cl)cc2)CC1)c1ccc(F)cc1`, 3.36; that for `O=C(O)c1ccccc1Cl`, 2.05.
For `Cc1ccc(CC(=O)O)cc1` the value was 1.86.
For the compound `CNC1(c2ccccc2Cl)CCCCC1=O` (centres undefined), the logP turned out to be 2.18.
The result for `Oc1ccc(O)cc1` reads 0.59; that for `CC1(C)SC2C(NC(=O)C(N)c3ccc(O)cc3)C(=O)N2C1C(=O)O` (centres undefined), 0.87.
`O=C1CCCCCN1` yielded a logP of -0.19.
The result for `CO` reads -0.77; that for `Nc1cccc2ncccc12`, 1.16; that for `Cc1cccc(O)c1`, 1.96.
The result for `CCCCN` reads 0.97.
`CC1(C)S[C@@H]2[C@H](NC(=O)C(C(=O)O)c3ccccc3)C(=O)N2[C@H]1C(=O)O` (some centres undefined) had a logP of 1.13.
The result for `Oc1cccc2cccnc12` reads 2.02; that for `Oc1ccccc1O`, 0.88; that for `Fc1ccccc1F`, 2.37.
As for `CCCC(C)=O`, the logP was found to be 0.91.
The result for `CCOc1ccc([N+](=O)[O-])cc1` reads 2.53.
For `Cc1cc(Cl)ccc1O` the value was 2.63.
For `CCC(=O)O` the value was 0.33; for `CCC(C)=O`, 0.29; for `CC(=O)C(C#N)=NNc1ccc([N+](=O)[O-])cc1[N+](=O)[O-]`, 3.4.
With `O=C(O)c1cccc(F)c1`, the logP stood at 2.15.
Consider `CC(=O)Oc1cccc(O)c1`, for which the logP worked out at 1.23.
For `Cc1ccc(Cc2cnc(NCCSCc3ccc(C(C)(C)N)o3)[nH]c2=O)cn1` the value was 2.06.
`Cc1ncc(CO)c(CO)c1O` showed a log partition coefficient (logP) of -0.77.
The result for `NC(CCCc1ccccc1)C(=O)O` (centres undefined) reads -0.36.
The result for `N[C@@H](Cc1c[nH]c2ccccc12)C(=O)O` reads -1.06; that for `CCCCCCCCCC`, 5.01.
In turn, `CCc1cccc(OC(=O)NC)c1` gave a logP of 2.2.
The result for `O=CO` reads -0.54.
The result for `CCCCOC(=O)c1ccc(O)cc1` reads 3.57.
As for `O=C(O)COc1ccccc1I`, the logP was determined as 2.33.
The result for `Brc1cccnc1` reads 1.6; that for `CC[C@H](C)[C@H](N)C(=O)O`, -1.7; that for `c1ccc2c(c1)ccc1c3ccccc3ccc21`, 5.81.
With `c1ccc2sccc2c1`, the logP came out at 3.12.
The result for `CNC(=O)Oc1ccc(OC)cc1` reads 1.2; that for `COc1ccc(CC(C)N)cc1OC` (centres undefined), 1.2.
The result for `NS(=O)(=O)c1cccc([N+](=O)[O-])c1` reads 0.55; that for `c1ccc(Nc2ccccc2)cc1`, 3.5.
For `O=C(O)c1ccc(N=C=S)cc1` the value was 3.52.
As to `O=C(O)c1ccc(O)cc1`, the logP was found to be 1.58.
The result for `COC(=O)C(C#N)=NNc1cc(C(F)(F)F)ccc1Cl` reads 4.42.
`O=S(c1ccccc1)c1ccccc1` returned a logP of 2.06.
For `c1ccc2[nH]cnc2c1` the value was 1.32; for `CC(=O)c1cccc(OCC(=O)O)c1`, 0.98; for `NC(=O)c1ccc(N)nc1`, 0.7.
For `CC(=O)c1ccc(C)cc1` the value was 2.1.
For `CCc1cccc(OCC(=O)O)c1` the value was 2.25; for `CC(=O)c1ccccc1O`, 1.92; for `Clc1nc2c(Cl)c(Cl)c(Cl)c(Cl)c2[nH]1`, 4.53.
With `C=CCOc1ccc(CC(=O)O)cc1Cl`, the logP is 2.48.
The result for `CC(C)(C)COC(N)=O` reads 0.94.
For `CC(=O)Nc1ccc(C(=O)O)cc1` the value was 1.31; for `CCCSc1nnc(C(C)C)c(=O)n1N`, 2.12; for `COc1ccc(O)cc1`, 1.58.
The result for `COC(=O)C(C#N)=NNc1ccc(Cl)cc1C` reads 4.3.
In the case of `OCc1ccc(O)cc1`, the logP was determined as 0.25.
The result for `CC(C)N` reads 0.26.
The result for `Brc1nc(Br)c(Br)[nH]1` reads 1.96; that for `Nc1ccccc1O`, 0.62; that for `CCOC(=O)Cc1ccccc1`, 2.28.
For `CCCl` the value was 1.43; for `Cn1nnc2ccccc21`, 1.13.
Compound `Cc1cccnc1` registered a logP of 1.2. This logP and that of the compound before are within 0.2 log units of each other.
For `FC(F)(F)c1nc2cc(Cl)c(Cl)cc2[nH]1` the value was 3.49; for `CCCCNc1ccc(C(=O)OCCN(C)C)cc1`, 3.51; for `CC(=O)Nc1ccc(Cl)cc1`, 2.09.
The result for `COP(=O)(OC)OC=C(Cl)Cl` reads 1.47; that for `Cc1ccc(OCC(=O)O)cc1`, 1.86.
`CC(=O)Nc1ccc([N+](=O)[O-])cc1` displayed a logP of 1.66.
`N#Cc1ccccn1`: the log partition coefficient (logP) worked out at 0.45.
The result for `CNC(=O)Oc1cccc(OC)c1` reads 1.3.
The compound `CN(N=O)C(N)=O` showed a logP of -0.03.
The result for `CCCCNC(=O)NS(=O)(=O)c1ccc(N)cc1` reads 1.01; that for `O=[N+]([O-])/C=C/c1ccoc1`, 1.41; that for `CCN1CCCC1CNC(=O)c1cc(S(=O)(=O)CC)ccc1OC` (centres undefined), 1.06.
The result for `NC(=O)C1(N2CCCCC2)CCN(CCCC(=O)c2ccc(F)cc2)CC1` reads 2.02.
For `COCc1ccccc1` the value was 1.92; for `NC(=O)c1ccc(Cl)cc1`, 1.55.
Compound `COC(=O)C(C#N)=NNc1ccc(S(=O)(=O)C(F)(F)F)cc1` had a logP of 4.22.
The result for `NNc1ccccc1` reads 1.25; that for `O=C(O)CCCc1ccccc1`, 2.42.
The result for `O=C(O)Cc1ccc(F)cc1` reads 1.55.
